Experimental findings from patent publication US20200087248A1, “Fluoroallylamine Derivative And Use Thereof” (SICHUAN KELUN-BIOTECH BIOPHARMACEUTICAL CO., LTD., priority 2017, published 2020) are described below.

For data set [1], the target named is T1, DAO (Homo sapiens, UniProt P19801).
T1 construct: purchased R&D Systems
T1 sequence (P19801 20-751): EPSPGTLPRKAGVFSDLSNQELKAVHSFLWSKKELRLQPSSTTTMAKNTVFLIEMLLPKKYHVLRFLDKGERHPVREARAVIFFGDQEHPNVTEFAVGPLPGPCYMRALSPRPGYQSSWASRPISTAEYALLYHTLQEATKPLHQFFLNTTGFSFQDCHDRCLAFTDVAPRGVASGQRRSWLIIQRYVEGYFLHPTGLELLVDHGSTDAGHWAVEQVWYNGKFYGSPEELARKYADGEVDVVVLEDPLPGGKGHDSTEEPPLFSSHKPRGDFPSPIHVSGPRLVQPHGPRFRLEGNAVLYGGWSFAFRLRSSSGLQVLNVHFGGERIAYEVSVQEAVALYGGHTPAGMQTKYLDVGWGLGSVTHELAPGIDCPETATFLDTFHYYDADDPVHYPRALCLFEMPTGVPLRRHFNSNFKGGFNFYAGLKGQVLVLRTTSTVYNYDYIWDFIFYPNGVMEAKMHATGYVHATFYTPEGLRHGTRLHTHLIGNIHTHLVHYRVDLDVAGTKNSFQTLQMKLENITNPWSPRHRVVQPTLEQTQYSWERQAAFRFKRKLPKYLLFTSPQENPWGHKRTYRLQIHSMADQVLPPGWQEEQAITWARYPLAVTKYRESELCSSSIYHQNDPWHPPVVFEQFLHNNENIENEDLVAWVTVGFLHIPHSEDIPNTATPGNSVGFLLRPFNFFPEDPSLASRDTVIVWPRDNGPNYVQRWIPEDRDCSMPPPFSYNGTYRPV
The data set is described as follows: Inhibition of the enzymatic activity of DAO. Type of data set: biochemical. To be noted: DAO 15 μg/ml, histamine substrate; read-out: IC50, inhibition against the enzymatic activity of DAO. How it is done:
Inhibition Experiment Against the Enzymatic Activity of DAO (Diamine Oxidase)
(§1) 1. Test kit: Amplex® Red Monoamine Oxidase Assay, Manufacturer: ThermoFisher
Protein: DAO, manufacturer: R&D Systems
DAO protein (15 μg/ml) and different concentrations of the test compound were pre-incubated at room temperature for 20 minutes, and then 100 μM Histamine-dihydrochloride, 1 U/mL HRP and 200 μM Amplex Red reagent were added to start the reaction. The inhibition rate of each concentration groups were calculated according to the experimental method of MAO-A.

The target of data set [2] is T2, hERG (Homo sapiens, UniProt Q12809).
T2 construct: purchased ThermoFisher; host or cells: hERG cell membrane supplied with the kit
T2 sequence (Q12809 whole entry): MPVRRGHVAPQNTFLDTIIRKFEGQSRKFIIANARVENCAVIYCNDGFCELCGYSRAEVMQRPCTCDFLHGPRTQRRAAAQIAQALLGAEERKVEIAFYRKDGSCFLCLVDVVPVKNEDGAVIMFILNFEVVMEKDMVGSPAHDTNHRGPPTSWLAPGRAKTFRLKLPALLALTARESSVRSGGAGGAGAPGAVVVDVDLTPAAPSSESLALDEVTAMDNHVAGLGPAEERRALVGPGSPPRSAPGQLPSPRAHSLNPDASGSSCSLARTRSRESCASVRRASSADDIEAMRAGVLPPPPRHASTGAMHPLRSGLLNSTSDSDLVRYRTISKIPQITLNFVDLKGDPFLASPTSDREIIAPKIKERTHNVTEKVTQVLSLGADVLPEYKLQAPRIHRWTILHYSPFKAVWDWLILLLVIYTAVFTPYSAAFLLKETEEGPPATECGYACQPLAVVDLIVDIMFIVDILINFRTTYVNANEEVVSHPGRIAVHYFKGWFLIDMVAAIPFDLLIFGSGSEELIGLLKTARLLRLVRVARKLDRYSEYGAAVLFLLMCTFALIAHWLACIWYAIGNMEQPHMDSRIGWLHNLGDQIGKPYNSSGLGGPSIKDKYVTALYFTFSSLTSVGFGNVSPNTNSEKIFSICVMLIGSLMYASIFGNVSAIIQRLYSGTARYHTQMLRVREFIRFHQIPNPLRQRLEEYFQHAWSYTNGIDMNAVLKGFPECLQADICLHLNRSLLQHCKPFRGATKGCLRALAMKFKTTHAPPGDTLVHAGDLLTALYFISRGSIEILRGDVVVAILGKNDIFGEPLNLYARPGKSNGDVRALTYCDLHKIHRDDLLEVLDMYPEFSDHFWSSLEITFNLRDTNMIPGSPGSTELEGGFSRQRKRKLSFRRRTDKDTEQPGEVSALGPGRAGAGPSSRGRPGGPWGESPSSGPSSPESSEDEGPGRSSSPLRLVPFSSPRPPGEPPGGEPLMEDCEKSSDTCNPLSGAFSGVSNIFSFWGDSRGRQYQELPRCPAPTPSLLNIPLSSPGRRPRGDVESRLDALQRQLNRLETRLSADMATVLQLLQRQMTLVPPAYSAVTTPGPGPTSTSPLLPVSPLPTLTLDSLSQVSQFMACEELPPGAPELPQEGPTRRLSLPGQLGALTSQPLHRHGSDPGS
The data set is described as follows: hERG fluorescence polarization inhibition experiment. To be noted: hERG cell membrane, 25° C. 2 hours, read-out: hERG (IC50 range, competitive binding vs tracer). In a few lines: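 Fluorescence-polarization tracer displacement on hERG cell membranes; compound and high-affinity tracer incubated 2 h at 25 °C. % inhibition from mP relative to buffer (0%) and 30 μM E4031 (100%) over several concentrations, giving an IC50 range.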

Data set [3] has as its target T3, MAO-A (Homo sapiens, UniProt P21397).
T3 construct: purchased Sigma Aldrich
T3 sequence (P21397 1-527): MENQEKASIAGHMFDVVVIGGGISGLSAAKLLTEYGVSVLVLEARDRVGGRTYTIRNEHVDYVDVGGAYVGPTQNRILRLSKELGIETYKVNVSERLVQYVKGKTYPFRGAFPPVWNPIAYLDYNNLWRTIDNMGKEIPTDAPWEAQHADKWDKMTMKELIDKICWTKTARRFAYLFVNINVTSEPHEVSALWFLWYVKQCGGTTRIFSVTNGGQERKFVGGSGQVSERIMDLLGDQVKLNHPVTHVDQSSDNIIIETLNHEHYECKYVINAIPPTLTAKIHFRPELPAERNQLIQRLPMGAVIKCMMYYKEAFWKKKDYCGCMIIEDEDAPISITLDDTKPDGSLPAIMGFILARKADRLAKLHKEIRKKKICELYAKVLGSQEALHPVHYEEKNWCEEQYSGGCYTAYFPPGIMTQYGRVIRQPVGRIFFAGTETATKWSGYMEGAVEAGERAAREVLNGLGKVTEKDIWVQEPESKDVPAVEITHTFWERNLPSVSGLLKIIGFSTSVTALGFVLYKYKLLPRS
Kind of data set: Inhibition of the enzymatic activity of MAO-A. Type of data set: biochemical. To be noted: range of IC50 from inhibition rates at 100 μM and 10 μM; read-out: IC50, inhibition against the enzymatic activity of MAO-A. On the procedure: Inhibition Experiment Against the Enzymatic Activity of MAO-A (Monoamine Oxidase Type A)
as §1
2. Reaction Buffer Solution: 50 mM PBS, pH 7.4
Protein: MAO-A, manufacturer: Sigma Aldrich
According to the method as described in the specification of the kit, MAO-A protein (15 μg/ml) and different concentrations of the test compound were pre-incubated at room temperature for 30 minutes, and then 200 μM p-tyramine hydrochloride, 1 U/mL HRP and 200 µM Amplex Red reagent were added to start the reaction. In kinetic mode, fluorescence signals were measured at Ex/Em=540/590 nm. The inhibition rate of each concentration group was calculated, wherein the ratio of fluorescence signal to reaction time ratio is the reaction rate, the vehicle group (DMSO) is the negative control, and the reaction buffer solution group (without enzymes and the compounds) is the blank control.
Percent inhibition rate (%)=(1-(reaction rate of each compound concentration group−reaction rate of the blank group)/(reaction rate of vehicle group−reaction rate of the blank group))*100.
According to the above method, the inhibition of the compound against the enzymatic activity of MAO-A was measured, and the range of IC50 was obtained according to the inhibition rates at 100 μM and 10 μM.

Where a name gives a salt, the structure may show the parent alone.

As for `NC/C(=C\F)COc1ccc(C(=O)Nc2ccccc2)cc1` [TM1-E, (E)-N-phenyl-4-((2-aminomethyl-3-fluoroallyl)oxy)-benzamide trifluoroacetate], the IC50 in data set [1] was greater than 0.1 µM; in data set [2], greater than 10 µM.

Turning to `NC/C(=C\F)COc1ccc2c(c1)C(=O)CC2` [TM7-E, (E)-6-((2-aminomethyl-3-fluoroallyl)oxy)-2,3-dihydro-1-indenone trifluoroacetate], the values for the 50% inhibitory concentration (IC50) in data set [1], in data set [3] and in data set [2] were greater than 1 µM, greater than 100 µM and greater than 10 µM, respectively.

For the compound `NC/C(=C/F)COc1ccc2c(c1)CCNC2=O` [TM26-Z, (Z)-6-((2-aminomethyl-3-fluoroallyl)oxy)-3,4-dihydroisoquinolin-1(2H)-one trifluoroacetate], the IC50 in data set [3] is greater than 100 µM; in data set [2] it was greater than 10 µM.

On to `NC/C(=C\F)COc1ccc(-c2ncccn2)cc1` [TM39-E, (E)-2-(4-(2-pyrimidyl)phenoxymethyl)-3-fluoroallylamine trifluoroacetate], for which the IC50 in data set [3] and in data set [2] was greater than 10 µM throughout.

Turning to `NC/C(=C\F)COc1ccc(C(=O)NC2CCOCC2)cc1` [TM76-E, (E)-N-(tetrahydro-2H-pyran-4-yl)-4-((2-aminomethyl-3-fluoroallyl)oxy)-benzamide trifluoroacetate], the IC50 in data set [1] was greater than 0.1 µM; in data set [3], greater than 100 µM; in data set [2], greater than 10 µM.

With `NC/C(=C/F)COc1ccc(C(=O)NCc2ccccn2)cc1` [TM112-Z, (Z)-4-((2-aminomethyl-3-fluoroallyl)oxy)-N-(pyridin-2-ylmethyl)benzamide trifluoroacetate], the IC50 in data set [1] was greater than 0.1 µM; in data set [3] it was greater than 100 µM; in data set [2], greater than 10 µM.

On to “(E)-6-((2-(methylamino)-3-fluoroallyl)oxy)-2-methyl-3,4-dihydroisoquinolin-1(2H)-one trifluoroacetate [TM66-E]”, for which the IC50 in data set [1] is greater than 0.1 µM; in data set [3], greater than 10 µM; in data set [2], greater than 10 µM.

Turning to “(E)-6-((2-(methylamino)-3-fluoroallyl)oxy)-3,3-dimethyl-3,4-dihydro-isoquinolin-1(2H)-one trifluoroacetate [TM38-E]”, the IC50 in data set [1] is greater than 1 µM; in data set [3], greater than 100 µM; in data set [2] it was greater than 10 µM.
